The record followed here is patent publication US20180200233A1, “COMPOSITIONS FOR PREVENTING CANCERS ASSOCIATED WITH HUMAN PAPILLOMA VIRUSES” (Loma Linda University, priority 2015, published 2018).

The target in one assay is T1, GST-E6 (Human papillomavirus type 16, UniProt P03126).
T1 construct: made in house
The assay can be described thus: Direct binding to E6 (FIG. 9). Further details: species or system HPV 16.

Another assay concerns C33A cells. The assay can be described thus: MTT cell viability, HPV- C33A cells with TRAIL. It is filed as cell-based, human. Particulars: 100 μM myricetin or 50 μM spinacine for 4 h. The procedure:
FIGS. 5A-B are graphs showing myricetin and spinacine (5) re-sensitized HPV^+, but not HPV^−, cells to treatment with TRAIL. SiHa (2×10^4 cells per well) and C33A cells (1×10^4 cells per well) were seeded into a 96-well plate and allowed to incubate overnight, then cells were pre-treated in the presence or absence of myricetin (100 μM) (FIG. 5A) or spinacine (50 μM) (FIG. 5B) for 4 h. The indicated concentration of TRAIL, along with cycloheximide (5 μg/ml) was added and cells were allowed to incubate overnight. Cell viability was measured by MTT assay, and the viability of cells untreated with TRAIL was set at 100%. Experiments were performed in triplicate, and error bars indicate the standard deviation.
The extracellular domain of human TRAIL was cloned into a pTriEx expression plasmid containing N-terminal Hisx6 tag. His-TRAIL was expressed in the E. coli BL-21 pLys strain and purified as previously described. Doxorubicin and cisplatin were purchased from Sigma. His-TRAIL, doxorubicin, and cisplatin were diluted in PBS to the desired concentration before using. […] All experiments were repeated at least three times (three biological replicates, carried out on different days), with each experimental group measured in triplicate within each of these individual experiments. […]

T1 sequence (P03126 whole entry): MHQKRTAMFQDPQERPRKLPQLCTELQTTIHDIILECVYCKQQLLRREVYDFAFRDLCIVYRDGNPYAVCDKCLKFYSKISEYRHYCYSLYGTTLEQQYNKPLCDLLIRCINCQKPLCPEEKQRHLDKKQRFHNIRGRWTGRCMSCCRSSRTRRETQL

With `O=C(O)C1Cc2[nH]cnc2CN1` (stereo not drawn) [Compound 5, 4,5,6,7-Tetrahydro-1H-imidazo(4,5-c)pyridine-6-carboxylic acid], the “binding to GST-E6 (in words)” value at GST-E6 (FIG. 9) is “able to bind to GST-E6”. In addition, on GST-E6 (spinacine binding to GST-E6, FIG. 9), the “N (binding stoichiometry)” value is given as “about 0.5”. Regarding `O=c1c(O)c(-c2cc(O)c(O)c(O)c2)oc2cc(O)cc(O)c12` [Myricetin, reference compound], in the assay with C33A cells, the “response of C33A cells to TRAIL-mediated apoptosis after pre-treatment (in words)” value is recorded as “remained resistant”.
